Assay results taken from patent US20250154686A1, “COMPOUND LIBRARY” (CHUGAI SEIYAKU KABUSHIKI KAISHA, priority 2021, published 2025).

Biological target: T1, Bcl-2 protein (Recombinant Human Bcl-2 Protein) (Homo sapiens, UniProt P10415)
T1 construct: purchased Novus Biologicals NBP2-34889
Experiment: AS-MS evaluation of binding of the Example 4 mixture library (1200 compounds/well) to Bcl-2, ASMS ratio (%)
In short: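 A pooled 1200-compound mixture (20 nM each final) was incubated with 20 μM recombinant human Bcl-2 in pH 7.4 Tris-HCl buffer with NaCl, Tween-20 and DTT for 1 h at 23° C. in the dark. Bound ligands were separated by spin-column SEC and measured by reverse-phase LC/MS; ASMS ratio (%) was calculated against protein-free unfiltered standard and protein-free SEC blank.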

[1] = AS-MS, Example 4 mixture library, Bcl-2, replicate n = 1
[2] = AS-MS, Example 4 mixture library, Bcl-2, replicate n = 2
[3] = replicate n = 1, mixture library, value belongs to the MS peak assigned to the compound
[4] = replicate n = 2, mixture library, value belongs to the MS peak assigned to the compound

T1 sequence (P10415 whole entry): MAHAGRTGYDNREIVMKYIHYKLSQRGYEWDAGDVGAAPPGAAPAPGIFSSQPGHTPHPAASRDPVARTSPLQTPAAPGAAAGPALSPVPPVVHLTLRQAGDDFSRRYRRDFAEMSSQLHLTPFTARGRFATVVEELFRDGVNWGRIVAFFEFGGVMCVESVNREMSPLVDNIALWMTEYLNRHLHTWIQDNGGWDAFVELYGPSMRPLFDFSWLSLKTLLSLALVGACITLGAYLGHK

SMILES	ASMS ratio (%) n = 1 [1] [%]	ASMS ratio (%) n = 2 [2] [%]	ASMS ratio (%) n = 1 [3] [%]	ASMS ratio (%) n = 2 [4] [%]
CCOc1cncc(-c2ccc(C(=O)N3CCN(c4ccc(C(=O)NS(=O)(=O)C(C)(C)C)cc4)CC3)cc2C)c1 [Compound B2L026-01, N-tert-Butylsulfonyl-4-[4-[4-(5-ethoxypyridin-3-yl)-3-methylbenzoyl]piperazin-1-yl]benzamide]			0.0	0.0
CCOc1cncc(-c2ccc(C(=O)N3CCN(c4ccc(C(=O)NS(=O)(=O)C(C)(C)C)cc4)CC3)c3ccccc23)c1 [Compound B2L036-01, N-tert-Butylsulfonyl-4-[4-[4-(5-ethoxypyridin-3-yl)naphthalene-1-carbonyl]piperazin-1-yl]benzamide]			0.0	0.0
CCOc1cncc(-c2cc(CN3CCN(c4ccc(C(=O)NS(=O)(=O)CCC(F)(F)F)cc4)CC3)cc(C(F)(F)F)c2)c1 [Compound B2N062-01, 4-[4-[[3-(5-Ethoxypyridin-3-yl)-5-(trifluoromethyl)phenyl]methyl]piperazin-1-yl]-N-(3,3,3-trifluoropropylsulfonyl)benzamide]	0.0	0.0		
CCOc1cccc(-c2ccc(CN3CCN(c4ccc(C(=O)NS(=O)(=O)C(C)(C)C)cc4)CC3)c(CC)c2)c1 [Compound B2L049-01, N-tert-Butylsulfonyl-4-[4-[[4-(3-ethoxyphenyl)-2-ethylphenyl]methyl]piperazin-1-yl]benzamide]				0.0
CCOc1cncc(C#Cc2ccccc2CN2CCN(c3ccc(C(=O)NS(=O)(=O)CCC(F)(F)F)cc3)CC2)c1 [Compound B2N070-01, 4-[4-[[2-[2-(5-Ethoxypyridin-3-yl)ethynyl]phenyl]methyl]piperazin-1-yl]-N-(3,3,3-trifluoropropylsulfonyl)benzamide]	0.0	0.0		
CCOc1cncc(-c2cc(OC)c(CN3CCN(c4ccc(C(=O)NS(C)(=O)=O)nn4)CC3)c(OC)c2)c1 [Compound B2I086-01, 6-[4-[[4-(5-Ethoxypyridin-3-yl)-2,6-dimethoxyphenyl]methyl]piperazin-1-yl]-N-methylsulfonylpyridazine-3-carboxamide]			0.0	0.0
CCOc1cncc(-c2cc(C(=O)N3CCN(c4ccc(C(=O)NS(=O)(=O)CCC(F)(F)F)cc4)CC3)cc(C(C)(C)C)c2)c1 [Compound B2N038-01, 4-[4-[3-tert-Butyl-5-(5-ethoxypyridin-3-yl)benzoyl]piperazin-1-yl]-N-(3,3,3-trifluoropropylsulfonyl)benzamide]	0.0	0.0		
CCOc1cncc(-c2ccc(C(=O)N3CCN(c4ccc(C(=O)NS(=O)(=O)CCC(F)(F)F)cc4)CC3)c3ccccc23)c1 [Compound B2N036-01, 4-[4-[4-(5-Ethoxypyridin-3-yl)naphthalene-1-carbonyl]piperazin-1-yl]-N-(3,3,3-trifluoropropylsulfonyl)benzamide]	0.0	0.4		
CCOc1cccc(-c2ccc(C(=O)N3CCN(c4ccc(C(=O)NS(=O)(=O)C(C)(C)C)cc4)CC3)cc2C)c1 [Compound B2L025-01, N-tert-Butylsulfonyl-4-[4-[4-(3-ethoxyphenyl)-3-methylbenzoyl]piperazin-1-yl]benzamide]			0.0	0.0
CCOc1cncc(-c2cc(C(=O)N3CCN(c4ccc(C(=O)NS(=O)(=O)C(C)(C)C)nn4)CC3)cc(C(F)(F)F)c2)c1 [Compound B2L018-01, N-tert-Butylsulfonyl-6-[4-[3-(5-ethoxypyridin-3-yl)-5-(trifluoromethyl)benzoyl]piperazin-1-yl]pyridazine-3-carboxamide]			−1.9	−2.5
CCOc1cccc(-c2ccc(CN3CCN(c4ccc(C(=O)NS(C)(=O)=O)cc4)CC3)c(CC)c2)c1 [Compound B2I049-01, 4-[4-[[4-(3-Ethoxyphenyl)-2-ethylphenyl]methyl]piperazin-1-yl]-N-methylsulfonylbenzamide]			0.0	0.0

Now from value to molecule:

ASMS ratio (%) n = 1 [1] [%]	ASMS ratio (%) n = 2 [2] [%]	ASMS ratio (%) n = 1 [3] [%]	ASMS ratio (%) n = 2 [4] [%]	SMILES
0.0	0.0			CCOc1cccc(-c2cc(CN3CCN(c4ccc(C(=O)NS(=O)(=O)CCC(F)(F)F)nn4)CC3)cc(OC(C)C)c2)c1 [Compound B2N083-01, 6-[4-[[3-(3-Ethoxyphenyl)-5-propan-2-yloxyphenyl]methyl]piperazin-1-yl]-N-(3,3,3-trifluoropropylsulfonyl)pyridazine-3-carboxamide]
		0.0	0.0	CCOc1cncc(-c2ccc(CN3CCN(c4ccc(C(=O)NS(=O)(=O)C(C)(C)C)nn4)CC3)c(OC)c2)c1 [Compound B2L080-01]
		0.0	0.0	CCOc1cccc(-c2ccc(CN3CCN(c4ccc(C(=O)NS(C)(=O)=O)cc4)CC3)cc2F)c1 [Compound B2I051-01, 4-[4-[[4-(3-Ethoxyphenyl)-3-fluorophenyl]methyl]piperazin-1-yl]-N-methylsulfonylbenzamide]
		0.0	0.0	CCOc1cccc(-c2ccccc2CN2CCN(c3ccc(C(=O)NS(=O)(=O)C(C)(C)C)cc3)CC2)c1 [Compound B2L045-01, N-tert-Butylsulfonyl-4-[4-[[2-(3-ethoxyphenyl)phenyl]methyl]piperazin-1-yl]benzamide]
6.4	0.0			CCOc1cncc(C#Cc2cncc(C(=O)N3CCN(c4ccc(C(=O)NS(=O)(=O)c5ccc(NCCSc6ccccc6)c(C(F)(F)F)c5)cc4)CC3)c2)c1 [Compound B2R032-01, 4-[4-[5-[2-(5-Ethoxypyridin-3-yl)ethynyl]pyridine-3-carbonyl]piperazin-1-yl]-N-[4-(2-phenylsulfanylethylamino)-3-(trifluoromethyl)phenyl]sulfonylbenzamide]
0.0	0.0			CCOc1cccc(-c2ccc(CN3CCN(c4ccc(C(=O)NS(=O)(=O)c5ccc(NCCSc6ccccc6)c(C(F)(F)F)c5)nn4)CC3)cc2F)c1 [Compound B2R077-01, 6-[4-[[4-(3-Ethoxyphenyl)-3-fluorophenyl]methyl]piperazin-1-yl]-N-[4-(2-phenylsulfanylethylamino)-3-(trifluoromethyl)phenyl]sulfonylpyridazine-3-carboxamide]
		0.0	0.0	CCOc1cncc(-c2ccc(CN3CCN(c4ccc(C(=O)NS(=O)(=O)C(C)(C)C)cc4)CC3)c3ccccc23)c1 [Compound B2L066-01, N-tert-Butylsulfonyl-4-[4-[[4-(5-ethoxypyridin-3-yl)naphthalen-1-yl]methyl]piperazin-1-yl]benzamide]
8.3	0.9			CCOc1cccc(-c2ccc(C(=O)N3CCN(c4ccc(C(=O)NS(=O)(=O)c5ccc(NCCSc6ccccc6)c(C(F)(F)F)c5)cc4)CC3)c3ccccc23)c1 [Compound B2R035-01]
8.6	0.0			CCOc1cccc(-c2ccc(CN3CCN(c4ccc(C(=O)NS(=O)(=O)c5ccc(NCCSc6ccccc6)c(C(F)(F)F)c5)nn4)CC3)c(CC)c2)c1 [Compound B2R075-01, 6-[4-[[4-(3-Ethoxyphenyl)-2-ethylphenyl]methyl]piperazin-1-yl]-N-[4-(2-phenylsulfanylethylamino)-3-(trifluoromethyl)phenyl]sulfonylpyridazine-3-carboxamide]
		0.0	0.0	CCOc1cccc(C#Cc2ccccc2CN2CCN(c3ccc(C(=O)NS(C)(=O)=O)nn3)CC2)c1 [Compound B2I095-01, 6-[4-[[2-[2-(3-Ethoxyphenyl)ethynyl]phenyl]methyl]piperazin-1-yl]-N-methylsulfonylpyridazine-3-carboxamide]
0.0	−0.5			CCOc1cncc(-c2ccc(CN3CCN(c4ccc(C(=O)NS(=O)(=O)CCC(F)(F)F)cc4)CC3)cc2F)c1 [Compound B2N052-01]
		−0.8	0.5	CCOc1cccc(-c2cc(CN3CCN(c4ccc(C(=O)NS(C)(=O)=O)cc4)CC3)cc(C(F)(F)F)c2)c1 [Compound B2I061-01, 4-[4-[[3-(3-Ethoxyphenyl)-5-(trifluoromethyl)phenyl]methyl]piperazin-1-yl]-N-methylsulfonylbenzamide]
−1.8	−1.5			CCOc1cccc(C#Cc2ccccc2CN2CCN(c3ccc(C(=O)NS(=O)(=O)CCC(F)(F)F)cc3)CC2)c1 [Compound B2N069-01, 4-[4-[[2-[2-(3-Ethoxyphenyl)ethynyl]phenyl]methyl]piperazin-1-yl]-N-(3,3,3-trifluoropropylsulfonyl)benzamide]
7.5	−5.5			CCOc1cccc(-c2ccc(CN3CCN(c4ccc(C(=O)NS(=O)(=O)c5ccc(NCCSc6ccccc6)c(C(F)(F)F)c5)cc4)CC3)c(CC)c2)c1 [Compound B2R049-01, 4-[4-[[4-(3-Ethoxyphenyl)-2-ethylphenyl]methyl]piperazin-1-yl]-N-[4-(2-phenylsulfanylethylamino)-3-(trifluoromethyl)phenyl]sulfonylbenzamide]
−3.3	6.3			CCOc1cccc(-c2cc(CN3CCN(c4ccc(C(=O)NS(=O)(=O)c5ccc(NCCSc6ccccc6)c(C(F)(F)F)c5)cc4)CC3)cc(OCC)c2)c1 [Compound B2R055-01, 4-[4-[[3-Ethoxy-5-(3-ethoxyphenyl)phenyl]methyl]piperazin-1-yl]-N-[4-(2-phenylsulfanylethylamino)-3-(trifluoromethyl)phenyl]sulfonylbenzamide]
